pIC50: −log10 of the molar value.

In the test the target is b-Raf (V600E) (Homo sapiens (Human), UniProt P15056, V600E). The conditions noted are these: read-out: b-Raf IC-50; Table 2; AlphaScreen, 3 hours reaction. For orientation: Bead proximity is the source of the signal in Alpha formats.
b-Raf (V600E), sequence (P15056 whole entry V600E): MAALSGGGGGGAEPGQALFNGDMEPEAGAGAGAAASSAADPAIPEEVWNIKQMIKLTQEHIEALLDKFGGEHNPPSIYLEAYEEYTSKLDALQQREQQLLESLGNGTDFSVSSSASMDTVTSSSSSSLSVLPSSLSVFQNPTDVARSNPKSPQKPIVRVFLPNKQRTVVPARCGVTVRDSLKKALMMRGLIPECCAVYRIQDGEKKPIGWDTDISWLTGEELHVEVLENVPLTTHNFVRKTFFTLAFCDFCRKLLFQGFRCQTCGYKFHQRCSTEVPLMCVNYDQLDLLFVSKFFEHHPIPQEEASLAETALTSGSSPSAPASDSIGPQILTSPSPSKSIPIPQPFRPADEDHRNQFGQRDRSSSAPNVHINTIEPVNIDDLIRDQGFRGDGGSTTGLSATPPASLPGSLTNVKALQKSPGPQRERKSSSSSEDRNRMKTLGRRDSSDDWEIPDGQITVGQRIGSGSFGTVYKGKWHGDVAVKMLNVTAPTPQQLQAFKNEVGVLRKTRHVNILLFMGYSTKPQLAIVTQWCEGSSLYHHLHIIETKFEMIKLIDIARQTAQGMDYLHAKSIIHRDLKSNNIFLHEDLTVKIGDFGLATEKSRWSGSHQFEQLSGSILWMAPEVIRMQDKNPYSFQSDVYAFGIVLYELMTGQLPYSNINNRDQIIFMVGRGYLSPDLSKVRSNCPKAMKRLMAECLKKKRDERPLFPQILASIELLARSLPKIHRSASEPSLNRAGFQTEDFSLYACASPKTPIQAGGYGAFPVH
For `Cc1ccc(NC(=O)c2cccc(C(F)(F)F)c2)cc1-c1cc(N2CCOCC2)c(=O)n(CC2(C)COC2)c1` [Example 337, N-(4-methyl-3-(1-((3-methyloxetan-3-yl)methyl)-5-morpholino-6-oxo-1,6-dihydropyridin-3-yl)phenyl)-3-(trifluoromethyl)benzamide], the pIC50 was 7.90.
Take `Cc1ccc(NC(=O)c2ccnc(C(C)(C)C#N)c2)cc1-c1cc(N2CCOCC2)c(=O)n(CC2(C)COC2)c1` [Example 338, 2-(2-cyanopropan-2-yl)-N-(4-methyl-3-(1-((3-methyloxetan-3-yl)methyl)-5-morpholino-6-oxo-1,6-dihydropyridin-3-yl)phenyl)isonicotinamide]: the pIC50 was 5.05.
With `COc1ccc(C(=O)Nc2ccc(C)c(-c3cc(N4CCOCC4)c(=O)n(C)c3)c2)cc1C(F)(F)F` [Example 339, 4-methoxy-N-(4-methyl-3-(1-methyl-5-morpholino-6-oxo-1,6-dihydropyridin-3-yl)phenyl)-3-(trifluoromethyl)benzamide], the pIC50 was 8.74.
As for `Cc1ccc(NC(=O)c2cccc(OC(F)(F)F)c2)cc1-c1cc(N2CCOCC2)c(=O)n(C)c1` [Example 340, N-(4-methyl-3-(1-methyl-5-morpholino-6-oxo-1,6-dihydropyridin-3-yl)phenyl)-3-(trifluoromethoxy)benzamide], the pIC50 was 7.44.
Turning to `CCC(F)(F)c1cc(C(=O)Nc2ccc(C)c(-c3cc(N4CCOCC4)c(=O)n(C)c3)c2)ccn1` [Example 341, 2-(1,1-difluoropropyl)-N-(4-methyl-3-(1-methyl-5-morpholino-6-oxo-1,6-dihydropyridin-3-yl)phenyl)isonicotinamide], the pIC50 is 8.70.
As for `CCOc1cc(C(=O)Nc2ccc(C)c(-c3cc(N4CCOCC4)c(=O)n(C)c3)c2)ccc1F` [Example 344, 3-ethoxy-4-fluoro-N-(4-methyl-3-(1-methyl-5-morpholino-6-oxo-1,6-dihydropyridin-3-yl)phenyl)benzamide], the pIC50 is 8.51.
Regarding `Cc1ccc(NC(=O)c2cccc(OC(C)C)c2)cc1-c1cc(N2CCOCC2)c(=O)n(C)c1` [Example 345, 3-isopropoxy-N-(4-methyl-3-(1-methyl-5-morpholino-6-oxo-1,6-dihydropyridin-3-yl)phenyl)benzamide], the pIC50 was 8.80.
On to `Cc1ccc(NC(=O)c2cccc(C3(C#N)CC3)c2Cl)cc1-c1cc(N2CCOCC2)c(=O)n(C)c1` [Example 346, 2-chloro-3-(1-cyanocyclopropyl)-N-(4-methyl-3-(1-methyl-5-morpholino-6-oxo-1,6-dihydropyridin-3-yl)phenyl)benzamide], for which the pIC50 was 8.06.
Turning to `Cc1ccc(NC(=O)c2ccnc(C(C)C)c2)cc1-c1cc(N2CCOCC2)c(=O)n(C)c1` [Example 348, 2-isopropyl-N-(4-methyl-3-(1-methyl-5-morpholino-6-oxo-1,6-dihydropyridin-3-yl)phenyl)isonicotinamide], the pIC50 is 8.57.
As for `Cc1ccc(NC(=O)c2cccc(-c3nnco3)c2)cc1-c1cc(N2CCOCC2)c(=O)n(C)c1` [Example 349, N-(4-methyl-3-(1-methyl-5-morpholino-6-oxo-1,6-dihydropyridin-3-yl)phenyl)-3-(1,3,4-oxadiazol-2-yl)benzamide], the pIC50 was 8.21.
On to `Cc1ccc(NC(=O)c2ccnc(C(C)(C)O)c2)cc1-c1cc(N2CCOCC2)c(=O)n(C)c1` [Example 350, 2-(2-hydroxypropan-2-yl)-N-(4-methyl-3-(1-methyl-5-morpholino-6-oxo-1,6-dihydropyridin-3-yl)phenyl)isonicotinamide], for which the pIC50 was 8.46.
Take `Cc1ccc(NC(=O)c2cccc(C(C)(C)S(C)(=O)=O)c2)cc1-c1cc(N2CCOCC2)c(=O)n(C)c1` [Example 351, N-(4-methyl-3-(1-methyl-5-morpholino-6-oxo-1,6-dihydropyridin-3-yl)-phenyl)-3-(2-(methylsulfonyl)propan-2-yl)benzamide]: the pIC50 was 7.71.
With `CCc1cc(C(=O)Nc2ccc(C)c(-c3cc(N4CCOCC4)c(=O)n(C)c3)c2)ccn1` [Example 353, 2-ethyl-N-(4-methyl-3-(1-methyl-5-morpholino-6-oxo-1,6-dihydropyridin-3-yl)phenyl)isonicotinamide], the pIC50 was 8.92.
Regarding `Cc1ccc(NC(=O)c2ccnc(C3CC3)c2)cc1-c1cc(N2CCOCC2)c(=O)n(C)c1` [Example 354, 2-cyclopropyl-N-(4-methyl-3-(1-methyl-5-morpholino-6-oxo-1,6-dihydropyridin-3-yl)phenyl)isonicotinamide], the pIC50 is 9.00.
Take `Cc1ccc(NC(=O)c2ccnc(C(C)(C)F)c2)cc1-c1cc(N2CCOCC2)c(=O)n(C)c1` [Example 355, 2-(2-fluoropropan-2-yl)-N-(4-methyl-3-(1-methyl-5-morpholino-6-oxo-1,6-dihydropyridin-3-yl)phenyl)isonicotinamide]: the pIC50 is 8.60.
`Cc1ccc(NC(=O)c2ccnc(C3COC3)c2)cc1-c1cc(N2CCOCC2)c(=O)n(C)c1` [Example 356, N-(4-methyl-3-(1-methyl-5-morpholino-6-oxo-1,6-dihydropyridin-3-yl)phenyl)-2-(oxetan-3-yl)isonicotinamide]: the pIC50 was 8.41.
For `Cc1ccc(NC(=O)c2ccnc(C3(C#N)CC3)c2)cc1-c1cc(N2CCOCC2)c(=O)n(C)c1` [Example 357, 2-(1-cyanocyclopropyl)-N-(4-methyl-3-(1-methyl-5-morpholino-6-oxo-1,6-dihydropyridin-3-yl)phenyl)isonicotinamide], the pIC50 is 8.47.
For `Cc1ccc(NC(=O)c2cccc(CC#N)c2)cc1-c1cc(N2CCOCC2)c(=O)n(C)c1` [Example 359, 3-(cyanomethyl)-N-(4-methyl-3-(1-methyl-5-morpholino-6-oxo-1,6-dihydropyridin-3-yl)phenyl)benzamide], the pIC50 was 8.26.
For the compound `Cc1ccc(NC(=O)c2cnnc(C(C)(C)C#N)c2)cc1-c1cc(N2CCOCC2)c(=O)n(C)c1` [Example 360, 6-(2-cyanopropan-2-yl)-N-(4-methyl-3-(1-methyl-5-morpholino-6-oxo-1,6-dihydropyridin-3-yl)phenyl)pyridazine-4-carboxamide], the pIC50 was 8.22.
For `Cc1ccc(NC(=O)c2cnnc(C(F)(F)F)c2)cc1-c1cc(N2CCOCC2)c(=O)n(C)c1` [Example 361, N-(4-methyl-3-(1-methyl-5-morpholino-6-oxo-1,6-dihydropyridin-3-yl)phenyl)-6-(trifluoromethyl)pyridazine-4-carboxamide], the pIC50 was 8.55.
To `Cc1ccc(NC(=O)c2cnnc(C3CC3)c2)cc1-c1cc(N2CCOCC2)c(=O)n(C)c1` [Example 362, 6-cyclopropyl-N-(4-methyl-3-(1-methyl-5-morpholino-6-oxo-1,6-dihydropyridin-3-yl)phenyl)pyridazine-4-carboxamide] belongs 8.54.
To `Cc1ccc(NC(=O)c2cnnc(C(C)(C)F)c2)cc1-c1cc(N2CCOCC2)c(=O)n(C)c1` [Example 363, 6-(2-fluoropropan-2-yl)-N-(4-methyl-3-(1-methyl-5-morpholino-6-oxo-1,6-dihydropyridin-3-yl)phenyl)pyridazine-4-carboxamide] belongs 8.42; to `Cc1ccc(NC(=O)c2cc(C(F)(F)F)ccn2)cc1-c1cc(N2CCOCC2)c(=O)n(C)c1` [Example 364, N-(4-methyl-3-(1-methyl-5-morpholino-6-oxo-1,6-dihydropyridin-3-yl)phenyl)-4-(trifluoromethyl)picolinamide], 8.68.

For the origin of these results see patent US9694016B2 (Novartis AG, priority 2013, dated 2017).
